From PubChem BioAssay (NCI)
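Following 48 hours of exposure in 96-well plates, responses at five concentrations were used to interpolate endpoints linearly. At the TGI there is no net growth.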

Experiments:
Assay in all cases: growth of human tumour cells (NCI), 48 h
HCT-116 colon = test system: HCT-116 colon
MCF7 breast = test system: MCF7 breast
RPMI-8226 leukemia = test system: RPMI-8226 leukemia
CCRF-CEM leukemia = test system: CCRF-CEM leukemia
K-562 leukemia = test system: K-562 leukemia
HS 578T breast = test system: HS 578T breast
OVCAR-3 ovarian = test system: OVCAR-3 ovarian
CAKI-1 renal = test system: CAKI-1 renal
TK-10 renal = test system: TK-10 renal
SK-MEL-5 melanoma = test system: SK-MEL-5 melanoma
MALME-3M melanoma = test system: MALME-3M melanoma
OVCAR-5 ovarian = test system: OVCAR-5 ovarian
786-0 renal = test system: 786-0 renal
DU-145 prostate = test system: DU-145 prostate
IGROV1 ovarian = test system: IGROV1 ovarian
BT-549 breast = test system: BT-549 breast
SN12C renal = test system: SN12C renal
NCI-H522 lung = test system: NCI-H522 lung
SK-OV-3 ovarian = test system: SK-OV-3 ovarian
SK-MEL-28 melanoma = test system: SK-MEL-28 melanoma
HT29 colon = test system: HT29 colon
MDA-N = test system: MDA-N
SR leukemia = test system: SR leukemia
UO-31 renal = test system: UO-31 renal
PC-3 prostate = test system: PC-3 prostate
NCI/ADR-RES ovarian = test system: NCI/ADR-RES ovarian
SF-295 CNS = test system: SF-295 CNS
HL-60(TB) leukemia = test system: HL-60(TB) leukemia
SNB-75 CNS = test system: SNB-75 CNS
SF-268 CNS = test system: SF-268 CNS
U251 CNS = test system: U251 CNS
EKVX NSCLC = test system: EKVX NSCLC
UACC-62 melanoma = test system: UACC-62 melanoma
COLO 205 colon = test system: COLO 205 colon
OVCAR-4 ovarian = test system: OVCAR-4 ovarian
HOP-62 NSCLC = test system: HOP-62 NSCLC
HCT-15 colon = test system: HCT-15 colon
SF-539 CNS = test system: SF-539 CNS
SK-MEL-2 melanoma = test system: SK-MEL-2 melanoma
MOLT-4 leukemia = test system: MOLT-4 leukemia
A549 NSCLC = test system: A549 NSCLC
NCI-H23 lung = test system: NCI-H23 lung
M14 melanoma = test system: M14 melanoma
NCI-H226 lung = test system: NCI-H226 lung
UACC-257 melanoma = test system: UACC-257 melanoma
LOX IMVI melanoma = test system: LOX IMVI melanoma
A498 renal = test system: A498 renal
HOP-92 NSCLC = test system: HOP-92 NSCLC
RXF 393 renal = test system: RXF 393 renal
MDA-MB-435 = test system: MDA-MB-435
ACHN renal = test system: ACHN renal
OVCAR-8 ovarian = test system: OVCAR-8 ovarian
T-47D breast = test system: T-47D breast
MDA-MB-231 breast = test system: MDA-MB-231 breast
SNB-19 CNS = test system: SNB-19 CNS
KM12 colon = test system: KM12 colon
SW-620 colon = test system: SW-620 colon
HCC-2998 colon = test system: HCC-2998 colon
NCI-H460 lung = test system: NCI-H460 lung

Q: Which results are given for `O=C(OC1CN2CCC1CC2)N(c1ccccc1)c1ccccc1` (centres undefined)?
A: TGI (HCT-116 colon): > 100 µM; TGI (MCF7 breast): > 100 µM; TGI (RPMI-8226 leukemia): > 100 µM; TGI (CCRF-CEM leukemia): > 100 µM; TGI (K-562 leukemia): > 100 µM; TGI (HS 578T breast): > 100 µM; TGI (OVCAR-3 ovarian): > 100 µM; TGI (CAKI-1 renal): > 100 µM; TGI (TK-10 renal): > 100 µM; TGI (SK-MEL-5 melanoma): > 100 µM; TGI (MALME-3M melanoma): > 100 µM; TGI (OVCAR-5 ovarian): > 100 µM; TGI (786-0 renal): > 100 µM; TGI (DU-145 prostate): > 100 µM; TGI (IGROV1 ovarian): > 100 µM; TGI (BT-549 breast): > 100 µM; TGI (SN12C renal): > 100 µM; TGI (NCI-H522 lung): > 100 µM; TGI (SK-OV-3 ovarian): > 100 µM; TGI (SK-MEL-28 melanoma): > 100 µM; TGI (HT29 colon): > 100 µM; TGI (MDA-N): > 100 µM; TGI (SR leukemia): > 100 µM; TGI (UO-31 renal): > 100 µM; TGI (PC-3 prostate): > 100 µM; TGI (NCI/ADR-RES ovarian): > 100 µM; TGI (SF-295 CNS): > 100 µM; TGI (HL-60(TB) leukemia): > 100 µM; TGI (SNB-75 CNS): > 100 µM; TGI (SF-268 CNS): > 100 µM; TGI (U251 CNS): > 100 µM; TGI (EKVX NSCLC): > 100 µM; TGI (UACC-62 melanoma): > 100 µM; TGI (COLO 205 colon): > 100 µM; TGI (OVCAR-4 ovarian): > 100 µM; TGI (HOP-62 NSCLC): > 100 µM; TGI (HCT-15 colon): > 100 µM; TGI (SF-539 CNS): > 100 µM; TGI (SK-MEL-2 melanoma): > 100 µM; TGI (MOLT-4 leukemia): > 100 µM; TGI (A549 NSCLC): > 100 µM; TGI (NCI-H23 lung): > 100 µM; TGI (M14 melanoma): > 100 µM; TGI (NCI-H226 lung): > 100 µM; TGI (UACC-257 melanoma): > 100 µM; TGI (LOX IMVI melanoma): > 100 µM; TGI (A498 renal): 78.5 µM; TGI (HOP-92 NSCLC): > 100 µM; TGI (RXF 393 renal): > 100 µM; TGI (MDA-MB-435): > 100 µM; TGI (ACHN renal): > 100 µM; TGI (OVCAR-8 ovarian): > 100 µM; TGI (T-47D breast): > 100 µM; TGI (MDA-MB-231 breast): > 100 µM; TGI (SNB-19 CNS): > 100 µM

Q: With `C=C(C)[C@H]1C2=CC(C)=C(O2)[C@@H](O)[C@H](C(=C)C)CCC2=C[C@H]1OC2=O` as the compound, how does the TGI (MCF7 breast) read?
A: The TGI was > 100 µM.

Q: What about the TGI (RPMI-8226 leukemia) of the same compound?
A: The TGI was > 100 µM.

Q: What about the TGI (CCRF-CEM leukemia) of the same compound?
A: Its TGI is > 100 µM.

Q: What about the TGI (K-562 leukemia) of the same compound?
A: The TGI was > 100 µM.

Q: And the TGI (HS 578T breast)?
A: Its TGI is > 100 µM.

Q: And the TGI (OVCAR-3 ovarian)?
A: Its TGI is > 100 µM.

Q: What about the TGI (CAKI-1 renal) of the same compound?
A: The TGI was > 100 µM.

Q: What about the TGI (TK-10 renal) of the same compound?
A: The TGI was > 100 µM.

Q: And the TGI (SK-MEL-5 melanoma)?
A: Its TGI is > 100 µM.

Q: What about the TGI (MALME-3M melanoma) of the same compound?
A: Its TGI is > 100 µM.

Q: What about the TGI (OVCAR-5 ovarian) of the same compound?
A: The TGI was > 100 µM.

Q: And the TGI (786-0 renal)?
A: The TGI was > 100 µM.

Q: And the TGI (DU-145 prostate)?
A: The TGI was > 100 µM.

Q: And the TGI (IGROV1 ovarian)?
A: Its TGI is > 100 µM.

Q: And the TGI (BT-549 breast)?
A: Its TGI is > 100 µM.

Q: And the TGI (SN12C renal)?
A: Its TGI is > 100 µM.

Q: What about the TGI (NCI-H522 lung) of the same compound?
A: The TGI was > 100 µM.

Q: What about the TGI (SK-MEL-28 melanoma) of the same compound?
A: Its TGI is > 100 µM.

Q: And the TGI (MDA-N)?
A: The TGI was > 100 µM.

Q: What about the TGI (SR leukemia) of the same compound?
A: The TGI was > 100 µM.

Q: And the TGI (UO-31 renal)?
A: Its TGI is > 100 µM.

Q: And the TGI (PC-3 prostate)?
A: The TGI was > 100 µM.

Q: And the TGI (NCI/ADR-RES ovarian)?
A: The TGI was > 100 µM.

Q: And the TGI (SF-295 CNS)?
A: The TGI was > 100 µM.

Q: And the TGI (HL-60(TB) leukemia)?
A: The TGI was > 100 µM.

Q: What about the TGI (SNB-75 CNS) of the same compound?
A: Its TGI is > 100 µM.

Q: What about the TGI (KM12 colon) of the same compound?
A: The TGI was > 100 µM.

Q: What about the TGI (SF-268 CNS) of the same compound?
A: The TGI was > 100 µM.

Q: What about the TGI (U251 CNS) of the same compound?
A: The TGI was > 100 µM.

Q: And the TGI (SW-620 colon)?
A: The TGI was > 100 µM.

Q: And the TGI (EKVX NSCLC)?
A: Its TGI is > 100 µM.

Q: And the TGI (UACC-62 melanoma)?
A: The TGI was > 100 µM.

Q: And the TGI (COLO 205 colon)?
A: Its TGI is > 100 µM.

Q: What about the TGI (OVCAR-4 ovarian) of the same compound?
A: Its TGI is > 100 µM.

Q: And the TGI (HCT-15 colon)?
A: The TGI was > 100 µM.

Q: And the TGI (SF-539 CNS)?
A: The TGI was > 100 µM.

Q: What about the TGI (HCC-2998 colon) of the same compound?
A: Its TGI is > 100 µM.

Q: What about the TGI (NCI-H460 lung) of the same compound?
A: Its TGI is > 100 µM.

Q: And the TGI (SK-MEL-2 melanoma)?
A: Its TGI is > 100 µM.

Q: What about the TGI (MOLT-4 leukemia) of the same compound?
A: The TGI was > 100 µM.

Q: What about the TGI (A549 NSCLC) of the same compound?
A: The TGI was > 100 µM.

Q: And the TGI (M14 melanoma)?
A: The TGI was > 100 µM.

Q: What about the TGI (NCI-H226 lung) of the same compound?
A: Its TGI is > 100 µM.

Q: What about the TGI (UACC-257 melanoma) of the same compound?
A: Its TGI is > 100 µM.

Q: And the TGI (LOX IMVI melanoma)?
A: The TGI was > 100 µM.

Q: What about the TGI (A498 renal) of the same compound?
A: Its TGI is > 100 µM.

Q: And the TGI (HOP-92 NSCLC)?
A: Its TGI is > 100 µM.

Q: And the TGI (RXF 393 renal)?
A: Its TGI is > 100 µM.

Q: And the TGI (MDA-MB-435)?
A: Its TGI is > 100 µM.

Q: And the TGI (ACHN renal)?
A: The TGI was > 100 µM.

Q: What about the TGI (OVCAR-8 ovarian) of the same compound?
A: The TGI was > 100 µM.

Q: What about the TGI (T-47D breast) of the same compound?
A: Its TGI is > 100 µM.

Q: And the TGI (MDA-MB-231 breast)?
A: The TGI was > 100 µM.

Q: And the TGI (SNB-19 CNS)?
A: Its TGI is > 100 µM.
